# Where two headings read alike, the source gives them in different places.
# Legend:
# plasma proteins = assay: Plasma protein binding; assay type: in vitro ADME
# [1] = system: Histone H3 and H4 acetylation; assay: Histone H3 and H4 acetylation in PBMCs by immunohistochemical detection (Example 1); assay type: in vivo, human; details: compared with pretreatment, preliminary analyses
# Experimental: Histone H3 and H4 acetylation was analyzed in peripheral blood mononuclear cells (PBMCs) by immunohistochemical detection.
# [2] = Plasma pharmacokinetics of oral SNDX-275 in patients with advanced and refractory solid tumors or lymphoma (Example 2); assay type: in vivo; details: human; for Cmax / AUC / Tmax / half-life: plasma, oral
# Experimental: The initial dosing schedule was daily oral administration for 28 days and 14-day recovery period, constituting a 42-day cycle. […] Samples were immediately centrifuged at 3000 g for 10 minutes at 4° C. and then plasma was divided into two aliquots of at least 1 mL and frozen at −70° C. until the time of analysis. Plasma samples were assayed by a specific and sensitive high-performance liquid chromatographic assay with mass-spectrometric detection. […] The pharmacokinetic parameters of interest included peak plasma concentration (Cmax), time to peak concentration (Tmax), area under the plasma concentration versus time curve extrapolated to infinity (AUC), apparent oral clearance (CL/F), and the terminal half-life (T1/2, z). The peak plasma concentrations (Cmax) and the time to peak plasma concentrations (Tmax) were the observed values. The area under the plasma concentration versus time curve (AUC) was calculated using the linear trapezoidal method from time zero to the time of the final quantifiable concentration (AUCtf). The AUC was then extrapolated to infinity (AUCinf) by dividing the last measured concentration by the rate constant of the terminal phase (k), which was determined by linear-regression analysis of the final three or four time points of the ling-linear concentration time plot. […] Deviations of β from 1 correspond to deviations from ideal dose proportionality. […] All PK data are presented as mean±SD, except where otherwise indicated. […] One-way analysis of variance was performed to compare mean values using a two-sided Dunnett's test. Statistical calculations were performed using the Number Cruncher Statistical System 2001 series (J. L. Hintze, Kaysville, Utah). The cut-off for statistical significance was considered at P<0.05.
# [3] = system: advanced solid tumors or lymphomas; assay: Response evaluation in patients with advanced solid tumors or lymphoma (Example 2); assay type: in vivo, human
# Experimental: At study entry, history, physical examination, laboratory studies (CBC, electrolytes, creatinine, blood urea nitrogen, total and direct bilirubin, ALT, AST, alkaline phosphatase, uric acid, prothrombin time, partial thromboplastin time, and urinalysis), computed tomography scan and chest x-ray and ECG were performed. Clinical assessments, including a physical examination and adverse event evaluation, were conducted at each follow-up. Adverse events were graded by the NCI Common Toxicity Criteria (version 2.0). Computed tomography scans and staging was performed every 6 weeks for the q14-day schedule. Disease-specific staging techniques, such as bone marrow aspirate and biopsy, flow cytometry, cutaneous lesion photography, or bone scan were used as indicated. Response evaluations used the Response Evaluation Criteria in Solid Tumors and the Cheson criteria for lymphoma. Multiple-gated acquisition (MUGA) scans were obtained on the q14-day schedule at base line, before course 2 and at each restaging. Laboratory studies (CBC with differential, chemistry 20, prothrombin time and […] thromboplastin time) were performed on days 1, 3, 5, 7 and repeated weakly.
# acetylated histone H3 = assay: Immunocytochemical analysis of acetylated histone H3 in PBMCs (Example 2); assay type: in vivo, human
# Experimental: Louis, Mo.) for 10 minutes at room temperature, rinsed quickly with water, air-dried, mounted using SlowFade (Molecular Probes), and imaged using a Zeiss Axiophot microscope interfaced with a CCD camera (Optronics Engineering, Goleta, Calif.). Positive controls were prepared by exposing healthy donor PBMCs to SNDX-275 in vitro. Buffy coats, provided anonymously as a byproduct of whole-blood donations from paid, healthy volunteer donors through an international review board-approved protocol, were centrifuged on Ficoll-Paque Plus. […] Cells were processed for histone hyperacetylation in the same manner as patient samples. Images of PBMCs stained for acetylated histone H3 were imported into the Openlab image analysis program (Improvision, Coventry, United Kingdom) and histone acetylation levels were assessed using the Openlab quantification software.
# [4] = PK of SNDX-275 in patients with metastatic melanoma (Example 4); details: human, in vivo; for Cmax: 7 mg
# Experimental: The concentration after 8 hours after the dose was approximately 2 ng/mL.
structure (smiles),measurement,setting,value
"Nc1ccccc1NC(=O)c1ccc(CNC(=O)OCc2cccnc2)cc1 [SNDX-275, N-(2-aminophenyl) 4-[N-(pyrid-3-yl)methyloxycarbonylaminomethyl]benzamide]",binding to albumin versus other plasma proteins,plasma proteins,no greater binding affinity to albumin than other plasma proteins
same,protein bound,plasma proteins,≈ 80%
same,histone H3 and H4 acetylation in PBMCs,[1],increase in histone H3 and H4 acetylation
same,"interpatient variability in clearance, comparison for body-surface area correction",[2]; in vivo,39.5%
same,Cmax,"[2]; 2 mg/m2, 2 mg/m^2, q14-day, first dose, fed, 3 patients",1.72 ng/mL
same,AUC,"[2]; 2 mg/m2, 2 mg/m^2, q14-day, first dose, fed, 3 patients, read-out: AUC Mean",196 ng·h/mL
same,Tmax,"[2]; 2 mg/m2, 2 mg/m^2, q14-day, first dose, fed, 3 patients, read-out: Tmax Median",6 h
same,half-life,"[2]; 2 mg/m2, 2 mg/m^2, q14-day, first dose, fed, 3 patients, read-out: t1/2 Mean (converted)",80.2 h
same,Cmax,"[2]; 4 mg/m2, 4 mg/m^2, q14-day, first dose, fed, 3 patients",4.84 ng/mL
same,AUC,"[2]; 4 mg/m2, 4 mg/m^2, q14-day, first dose, fed, 3 patients, read-out: AUC Mean",392 ng·h/mL
same,Tmax,"[2]; 4 mg/m2, 4 mg/m^2, q14-day, first dose, fed, 3 patients, read-out: Tmax Median",6 h
same,half-life,"[2]; 4 mg/m2, 4 mg/m^2, q14-day, first dose, fed, 3 patients, read-out: t1/2 Mean (converted)",50.5 h
same,Cmax,"[2]; 6 mg/m2, 6 mg/m^2, q14-day, first dose, fed, 6 patients",9.59 ng/mL
same,AUC,"[2]; 6 mg/m2, 6 mg/m^2, q14-day, first dose, fed, 6 patients, read-out: AUC Mean",493 ng·h/mL
same,Tmax,"[2]; 6 mg/m2, 6 mg/m^2, q14-day, first dose, fed, 6 patients, read-out: Tmax Median",2 h
same,half-life,"[2]; 6 mg/m2, 6 mg/m^2, q14-day, first dose, fed, 6 patients, read-out: t1/2 Mean (converted)",52.8 h
same,Cmax,"[2]; 8 mg/m2, 8 mg/m^2, q14-day, first dose, fed, 5 patients",15.5 ng/mL
same,AUC,"[2]; 8 mg/m2, 8 mg/m^2, q14-day, first dose, fed, 5 patients, read-out: AUC Mean",358 ng·h/mL
same,Tmax,"[2]; 8 mg/m2, 8 mg/m^2, q14-day, first dose, fed, 5 patients, read-out: Tmax Median",2 h
same,half-life,"[2]; 8 mg/m2, 8 mg/m^2, q14-day, first dose, fed, 5 patients, read-out: t1/2 Mean (converted)",39.7 h
same,Cmax,"[2]; 10 mg/m2, 10 mg/m^2, q14-day, first dose, fed, 6 patients",45.1 ng/mL
same,AUC,"[2]; 10 mg/m2, 10 mg/m^2, q14-day, first dose, fed, 6 patients, read-out: AUC Mean",529 ng·h/mL
same,Tmax,"[2]; 10 mg/m2, 10 mg/m^2, q14-day, first dose, fed, 6 patients, read-out: Tmax Median",1.5 h
same,half-life,"[2]; 10 mg/m2, 10 mg/m^2, q14-day, first dose, fed, 6 patients, read-out: t1/2 Mean (converted)",51.6 h
same,Cmax,"[2]; 12 mg/m2, 12 mg/m^2, q14-day, first dose, fed, 4 patients",132 ng/mL
same,AUC,"[2]; 12 mg/m2, 12 mg/m^2, q14-day, first dose, fed, 4 patients, read-out: AUC Mean",680 ng·h/mL
same,Tmax,"[2]; 12 mg/m2, 12 mg/m^2, q14-day, first dose, fed, 4 patients, read-out: Tmax Median",0.5 h
same,half-life,"[2]; 12 mg/m2, 12 mg/m^2, q14-day, first dose, fed, 4 patients, read-out: t1/2 Mean (converted)",45 h
same,Tmax,"[2]; all doses 2 to 12 mg/m^2, q14-day, read-out: Tmax Grand median",1.75 h
same,half-life,"[2]; all doses 2 to 12 mg/m^2, q14-day, read-out: t1/2 Grand mean (apparent terminal half-life) (converted)",51.7 ± 21.6 h
same,half-life,"[2]; bi-exponential decline, read-out: T1/2 in plasma (converted)",~50 h
same,half-life,"[2]; half-life of SNDX-275 in humans, preliminary PK analysis",39 to 80 h
same,Tmax,"[2]; in some patients, read-out: earliest Tmax observed (converted)",0.5 h
same,AUC,"[2]; n=4, FIG. 6, read-out: mean AUC in patients experiencing DLTs",517 ± 276 ng·h/mL
same,AUC,"[2]; n=23, FIG. 6, read-out: mean AUC in patients without DLT",280 ± 121 ng·h/mL
same,Tmax,"[2]; q14-day schedule, read-out: median Tmax",~2 h
same,patients remaining on treatment for greater than 3 months,"[3]; human, in vivo",Ten of 29
same,objective responses,[3]; q14-day schedule,not observed
same,patients with stable disease,[3]; q14-day schedule,15
same,histone H3 acetylation in peripheral-blood mononuclear-cells,"acetylated histone H3; apparent at all dose levels, immunofluoresence analysis",Increased histone H3 acetylation
same,histone H3 and H4 acetylation (HDAC inhibition),acetylated histone H3; daily schedule patients,HDAC inhibition occurred after one dose
same,Cmax,[4]; day 1 of cycle 1,18.5 ng/mL
same,Cmax,[4]; day 1 of cycle 2,23.3 ng/mL
same,concentration at 8 h,"[4]; 7 mg dose, read-out: concentration 8 hours after the dose",~2 ng/mL

# Source: US20130303575A1, “ADMINISTRATION OF AN INHIBITOR OF HDAC” (priority 2007, published 2013)
